Measured values taken from patent US11778995B2, “Genetically modified non-human animals and methods of use thereof” (Regeneron Pharmaceuticals, Inc., priority 2012, dated 2023).

System: INA-6 cells
Assay: μCT analysis of murine femurs after treatment of INA-6-engrafted mice with anti-myeloma drugs
Format: in vivo, mouse
Details: Rag2−/−Il2rgnullIl6h/hhSIRPa+ mice engrafted with 5×10^5 intrafemorally injected INA-6 cells, treated biweekly, femurs analyzed after four weeks, compared to untreated mice
Excerpt: FIG. 7 is a graph depicting the results of μCT analysis of murine femurs after treatment with anti-myeloma drugs. Rag2^−/−Il2rg^nullIl6^h/hhSIRPa+ were engrafted with 5×10^5 intrafemorally injected INA-6 cells and treated biweekly with Velcade® or Zometa®, respectively. After four weeks, mice were sacrificed and femurs were fixed in 70% ethanol for μCT analysis. Trabecular bone and tissue volumes were quantified to calculate the ratio between bone to tissue volume.
Transplantation of cells. For intrafemoral transplantation of INA6 cells, Rag2^−/−Il2rg^null Il6^h/hhSIRPa^+ mice were irradiated twice with 200 rad from an X-ray source.
Indicated amounts of cells were then transplanted into the femur of recipient mice. Briefly, mice were anaesthetized using Ketamine/Xylazine and a hole was drilled into the patellar surface of the femur using a 26 gauge needle. The cells were then slowly injected in a volume of 20 μl using a 27 gauge needle. […]
μCT. Femur morphometry was quantified using cone-beam microfocus x-ray computed tomography (μCT40; ScancoMedicalAG). […]
Therefore, it was next examined whether transplantation of the tumor cell line in its natural microenvironment is able to reproduce the pathology typically associated with human MM. […] Specifically, the loss of trabecular bone mass was observed by histology, which was quantified by μCT. […]

Question: `O=P(O)(O)C(O)(Cn1ccnc1)P(=O)(O)O` [Zometa] was tested. Which “bone resorption as quantified by μCT (ratio between bone to tissue volume)” value did it give?
Answer: able to reduce bone resorption
